Data taken from patent US4472579A, “Process for the preparation of quinoline carboxylic acid derivatives” (Kyorin Seiyaku Kabushiki Kaisha, priority 1980, dated 1984).
In brackets after ≈: the same amount, converted by molar mass. Where two headings read alike, the source gives them in different places.

Key:
Test in all cases: Antibacterial activity, agar dilution streak MIC
Assay type in all cases: cell-based
[1] = test system: Pseudomonas aeruginosa VI; conditions: Gram -, read-out: Minimum inhibitory concentration
Experimental: (§1) The antibacterial activities of the compounds of this invention were assayed by the standard agar dilution streak method against Gram-positive and Gram-negative bacteria [Chemothrapy, 22, 1126 (1974)].

[2] = test system: Klebsiella pneumoniae IF03512; conditions: Klebsiella pneumoniae IF03512, Gram -; read-out: Minimum inhibitory concentration
Experimental: as §1

Bacillus subtilis PCI219 = conditions: Bacillus subtilis PCI219, Gram +; read-out: Minimum inhibitory concentration
Experimental: as §1

[3] = test system: Pseudo. aeruginosa IF012689; conditions: Pseudomonas aeruginosa; Pseudo. aeruginosa IF012689, Gram -; read-out: Minimum inhibitory concentration
Experimental: as §1

[4] = test system: Staphyloccocus aureus 209P; conditions: read-out: Minimum inhibitory concentration
Experimental: as §1

[5] = test system: Salmonella enteritidis IID604; conditions: Salmonella enterica, read-out: Minimum inhibitory concentration
Experimental: as §1

S. aureus ATCC14775 = conditions: Staphylococcus aureus; S. aureus ATCC14775, Gram +; read-out: Minimum inhibitory concentration
Experimental: as §1

[6] = test system: Streptococcus pyogenes IID692; conditions: Streptococcus pyogenes IID692, Gram +; read-out: Minimum inhibitory concentration
Experimental: as §1

[7] = test system: Escherichia coli NIHJ JC-2; conditions: NIHJJC2, read-out: Minimum inhibitory concentration
Experimental: as §1

Proteus vulgaris IF03167 = conditions: Proteus vulgaris IF03167, Gram -; read-out: Minimum inhibitory concentration
Experimental: as §1

[8] = test system: Diplococcus pneumoniae IID552; conditions: Streptococcus pneumoniae; Diplococcus pneumoniae IID552, Gram +; read-out: Minimum inhibitory concentration
Experimental: as §1

Shigella sonnei IID969 = conditions: Shigella sonnei IID969, Gram -; read-out: Minimum inhibitory concentration
Experimental: The antibacterial activities of the compounds of this invention were assayed by the standard agar dilution streak method against Gram-positive and Gram-negative bacteria [Chemothrapy, 22, 1126 (1974)]. The result was shown in Table 1 together with a known agent, nalidixic acid.

SMILES	MIC [2] [µg/mL]	MIC [3] [µg/mL]	MIC [6] [µg/mL]	MIC [8] [µg/mL]	MIC (Shigella sonnei IID969) [µg/mL]	further results
CCn1cc(C(=O)O)c(=O)c2cc(F)c(N3CCNCC3)cc21 [Example 1, 1-ethyl-6-fluoro-7-(1-piperazinyl)-4-oxo-1,4-dihydroquinoline-3-carboxylicacid]	0.05 (≈ 0.157 µM)	1.56 (≈ 4.89 µM)	1.56 (≈ 4.89 µM)	3.13 (≈ 9.8 µM)	0.1 (≈ 0.313 µM)	MIC [1]: 0.39 µg/mL (≈ 1.22 µM); MIC (Bacillus subtilis PCI219): 0.39 µg/mL (≈ 1.22 µM); MIC ([4]; Staphyloccocus aureus 209P, Gram +): 0.78 µg/mL (≈ 2.44 µM); MIC ([5]; Salmonella enteritidis IID604, Gram -): 0.2 µg/mL (≈ 0.626 µM); MIC (S. aureus ATCC14775): 3.13 µg/mL (≈ 9.8 µM); MIC [7]: 0.1 µg/mL (≈ 0.313 µM); MIC (Proteus vulgaris IF03167): 0.1 µg/mL (≈ 0.313 µM)
CCn1cc(C(=O)O)c(=O)c2cc(F)c(N3CCN(C)CC3)cc21 [Example 6, 1-ethyl-6-fluoro-7-(4-methyl-1-piperazinyl)-4-oxo-1,4-dihydroquinoline-3-carboxylic acid]	0.05 (≈ 0.15 µM)	3.13 (≈ 9.39 µM)	6.25 (≈ 18.7 µM)	3.13 (≈ 9.39 µM)	0.1 (≈ 0.3 µM)	MIC [5]: 0.78 µg/mL (≈ 2.34 µM)
C=Cn1cc(C(=O)O)c(=O)c2cc(F)c(N3CCNCC3)cc21 [Example 8, 1-vinyl-6-fluoro-7-(1-piperazinyl)-4-oxo-1,4-dihydroquinoline-3-carboxylicacid]			12.5 (≈ 39.4 µM)			
C=Cn1cc(C(=O)O)c(=O)c2cc(F)c(N3CCN(C)CC3)cc21 [Example 9, 1-vinyl-6-fluoro-7-(4-methyl-1-piperazinyl)-4-oxo-1,4-dihydroquinoline-3-carboxylic acid]			12.5 (≈ 37.7 µM)			
CCn1cc(C(=O)O)c(=O)c2ccc(C)nc21 [NA, Nalidixic acid, reference compound]						MIC [4]: 50 µg/mL (≈ 215 µM)
